Earlier results, collected in patent publication US6803187B1 (priority 1998, dated 2004).

How the values were obtained:
HIV protease = conditions: HIV-1 protease numbering

CC(C)(C)NC(=O)[C@@H]1C[C@@H]2CCCC[C@@H]2CN1C[C@@H](O)[C@H](Cc1ccccc1)NC(=O)[C@H](CC(N)=O)NC(=O)c1ccc2ccccc2n1 [Ro 31-8959, saquinavir]
patients in whom resistant variants emerge (HIV; after 1 year of monotherapy, mutations at positions 90 and/or 48): approximately 45%

CC(C)CN(C[C@@H](O)[C@H](Cc1ccccc1)NC(=O)O[C@H]1CCOC1)S(=O)(=O)c1ccc(N)cc1 [VX-478]
amino acid position/codon whose change confers resistance (HIV protease): 50

CC(C)(C)NC(=O)[C@@H]1CN(Cc2cccnc2)CCN1C[C@@H](O)C[C@@H](Cc1ccccc1)C(=O)N[C@H]1c2ccccc2C[C@H]1O [MK-639, indinavir]
share of indinavir resistant isolates cross-resistant to nelfinavir (HIV; human, in vivo): Approximately one third
